Holding throughout (assay): growth of human tumour cells (NCI), 48 h
The test system of assay [1] is T-47D breast.
The subject of assay [2] is SF-295 CNS.
Assay [3] concerns SN12C renal.
Assay [4] has as its system TK-10 renal.
The subject of assay [5] is CAKI-1 renal.
Assay [6] concerns A549 NSCLC.
Assay [7] relates to UACC-62 melanoma.
In assay [8] the test system is SK-MEL-5 melanoma.
The test system of assay [9] is RPMI-8226 leukemia.
Assay [10] has as its system SNB-75 CNS.

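Grown in 96-well plates, cells were treated for 48 hours with each compound at five concentrations. Insufficient inhibition: endpoint recorded as highest concentration tested. Here, GI50 denotes the concentration required for 50% inhibition of growth. TGI: total growth inhibition.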

Consider `Cc1c(C(=O)/C=C/c2csc3ccccc23)[n+](=O)c2ccccc2n1[O-]`, for which the GI50 in assay [1] was 1.92 µM; in assay [2], 1.94 µM; in [3], 2 µM; in assay [4] it was 2.79 µM; in assay [5], 1.42 µM; in assay [6] it was 2.13 µM. Also, the GI50 is 1.77 µM in assay [7], 1.59 µM in assay [8], 1.78 µM in assay [9] and 1.38 µM in assay [10]. Also, the TGI worked out at 5.81 µM in assay [1]; 4.83 µM in [2]; 4.72 µM in assay [3]; 6.09 µM in assay [4]; 3.7 µM in [5]; 5.25 µM in [6]. Also, the TGI in assay [7] is 3.65 µM; in [8] it was 2.94 µM; in [9] it was 4.91 µM; in assay [10] it was 3.34 µM.
Regarding `COc1cc(Cl)cc(-c2nn(C(=O)NCCN3CCOCC3)cc2-c2ccncc2)c1`, the GI50 in assay [1] is 5.78 µM; in [2], 2.75 µM; in assay [3], 10 µM; in assay [4], 8.46 µM; in assay [5] it was 2.49 µM; in [6] it was 9.97 µM. The GI50 in assay [7] is 3.72 µM; in assay [8], 2.59 µM; in assay [9], 7.38 µM; in assay [10], 1.73 µM. Besides, the TGI is greater than 100 µM in assay [1]; 13.5 µM in assay [2]; greater than 100 µM in [3]; greater than 100 µM in [4]; 18.7 µM in assay [5]; greater than 100 µM in assay [6]. For the same compound, the TGI in assay [7] is 20.4 µM; in [8], 13.1 µM; in [9], greater than 100 µM; in [10] it was 8.78 µM.
Turning to `CCCN=Cc1cc(Cc2ccc(O)c(C=NCCC)c2)ccc1O`, the TGI is 6.33 µM in assay [1]; 52.5 µM in [2]; 15.3 µM in [3]; 57.4 µM in assay [4]; 73.8 µM in [5]; 32.3 µM in assay [6]. Moreover, the TGI is 22.7 µM in assay [7], 17.2 µM in assay [8] and 9.67 µM in assay [10].
Consider `CC1(C)SC2C(NC(=O)C(N)c3ccccc3)C(=O)N2C1C(=O)O` (stereo not given), for which the TGI in assay [1], in [2], in assay [3], in assay [4], in assay [5] and in assay [6] was greater than 100 µM in each case. The TGI in assay [7], in assay [8], in assay [9] and in assay [10] was greater than 100 µM each time.
As to `CN(C)/C=C/c1nnc([N+](=O)[O-])s1`, the TGI in assay [1] was 38.9 µM; in [2], 39.4 µM; in [3], 47.7 µM; in assay [4], 58.5 µM; in assay [5] it was 40.5 µM; in assay [6], 66.4 µM. Besides, the TGI worked out at 35.4 µM in [7], 24.3 µM in assay [8] and 66.6 µM in [10].
For the compound `Cc1ccc(/C=C2\CN(C(=O)OC(C)(C)C)C/C(=C\c3ccc(C)cc3)C2=O)cc1`, the TGI in assay [1], in [2], in assay [3], in assay [4], in [5] and in assay [6] was greater than 100 µM throughout. In addition, the TGI in assay [7] and in assay [10] was greater than 100 µM throughout. Further, the GI50 in [2] is 0.0685 µM; in [3] it was 0.393 µM; in assay [4] it was greater than 40.7 µM; in [5], 0.576 µM; in assay [7], 0.0788 µM; in assay [9] it was 0.329 µM. The GI50 in assay [10] is 0.693 µM.
As for `Cc1occc1C(=S)Nc1ccc(Cl)c(COC(C)(C)C)c1`, the TGI in assay [1] worked out at 26.9 µM; in assay [2], 27.9 µM; in assay [3], 29.2 µM; in [4] it was 34.8 µM; in [5], 38.9 µM; in [6] it was 41.8 µM. Moreover, the TGI in assay [7] was determined as 28.6 µM; in [8], 33.4 µM; in assay [9] it was 50.5 µM.
`COc1ccc(-c2ccc(/C=N/n3c(COc4ccc(Cl)cc4Cl)n[nH]c3=S)o2)c([N+](=O)[O-])c1`: the GI50 is 44 µM in [1]; 18 µM in assay [2]; 24.2 µM in assay [3]; 16.8 µM in assay [4]; 17.3 µM in [5]; 19.5 µM in [6]. Besides, the GI50 in [7] was 34.7 µM; in assay [9], 11.7 µM. Besides, the TGI in assay [1] is greater than 100 µM; in assay [2], 36.5 µM; in assay [3], 58.4 µM; in assay [4], 49.2 µM; in assay [5], 36.9 µM; in assay [6], greater than 100 µM. Moreover, the TGI in assay [7] was greater than 100 µM; in assay [9], 43.7 µM.
On to `C=C1C(=O)O[C@H]2[C@H]1CC/C(COC(=O)NCc1ccccc1OC)=C\CC[C@@]1(C)O[C@@H]21`, for which the GI50 in [1] was 2.01 µM; in assay [2], 5.02 µM; in assay [4] it was 1.79 µM; in [5], 1.38 µM; in assay [6] it was 3.07 µM; in [8], 2.86 µM. In addition, the GI50 was 1.77 µM in [9] and 2.44 µM in assay [10]. Further, the TGI was found to be 5.7 µM in [1]; 18.8 µM in assay [2]; 3.48 µM in [4]; 2.77 µM in assay [5]; 11.8 µM in assay [6]; 8.03 µM in [8]. Further, the TGI in assay [9] amounted to 6.24 µM; in assay [10], 13.2 µM.
With `Nc1ccn(Cc2ccc(C34CC5CC(CC(C5)C3)C4)c(O)c2)c(=O)n1`, the GI50 in assay [1] was greater than 100 µM; in assay [2], 31.5 µM; in assay [3], greater than 100 µM; in [4], greater than 100 µM; in assay [5], greater than 100 µM; in assay [7] it was greater than 100 µM. Moreover, the GI50 in assay [8] is 82.4 µM; in assay [9], greater than 100 µM; in assay [10], 24 µM. Also, the TGI in assay [1], in [2], in [3], in assay [4], in assay [5] and in assay [7] was greater than 100 µM throughout. In addition, the figures for the TGI in assay [8], in assay [9] and in assay [10] were greater than 100 µM, greater than 100 µM and 84 µM, respectively.
`Nc1c(C(=O)Nc2cccc([N+](=O)[O-])c2)sc2nc3c(cc12)C(O)CCC3` (stereo not given): the GI50 in assay [1] was 6.59 µM; in assay [2], 4.35 µM; in assay [3], 7.39 µM; in [4] it was 15.9 µM; in assay [5], greater than 100 µM; in assay [6], 5.82 µM. The GI50 in assay [7] was 5.93 µM; in [8], 3.59 µM; in assay [10], 5.38 µM. In addition, the TGI in assay [1] was greater than 100 µM; in assay [2], greater than 54 µM; in [3] it was greater than 100 µM; in assay [4] it was greater than 100 µM; in assay [5], greater than 100 µM; in [6], greater than 100 µM. Moreover, the TGI in assay [7] is greater than 100 µM; in [8] it was greater than 100 µM; in [10] it was 30.5 µM.
In the case of `Nc1cc2cccc[n+]2c2cc(Cl)ccc12`, the GI50 was 6.83 µM in assay [1]; 23.1 µM in assay [2]; 5.56 µM in [3]; 59.7 µM in [4]; 56.3 µM in [6]; 18.7 µM in assay [7]. Further, the GI50 was 10.4 µM in [8], 2.86 µM in assay [9] and 21.5 µM in assay [10]. Besides, the TGI in assay [3] came out at 35.4 µM; in assay [7], 45.9 µM; in assay [8] it was 23.2 µM; in assay [9] it was 29.9 µM; in assay [10] it was 62.7 µM.
On to `O=C1c2ccccc2-c2c1c1ccccc1c(=O)n2CCCNCCCNCCCn1c2c(c3ccccc3c1=O)C(=O)c1ccccc1-2`, for which the GI50 in [1] was 1.64 µM; in [2], 0.0151 µM; in assay [3] it was less than 0.01 µM; in [5], 0.342 µM; in [6], 0.0174 µM; in assay [7], 0.0434 µM. The values for the GI50 in assay [8] and in assay [10] were 0.12 µM and 1.13 µM, respectively. The TGI in [1] is 6.4 µM; in [2] it was 1.26 µM; in assay [3], less than 0.0303 µM; in [4], 0.732 µM; in [5] it was 1.7 µM; in [6], 0.183 µM. Also, the TGI in [7] worked out at 0.346 µM; in assay [8] it was 1.22 µM; in [10], 3.05 µM.
On to `C=CCC1([C@H](C)[C@@H](OC(C)=O)c2cc(OC)c(OC)c(OC)c2)C[C@@H](OC)CCC1=O` (stereo not given in full), for which the TGI in [2] is 39.7 µM; in assay [3], 37 µM; in assay [4], greater than 100 µM; in assay [5], greater than 100 µM; in [6] it was 77.5 µM; in assay [7], 34.9 µM. Further, the TGI in assay [8] was greater than 100 µM; in [9] it was 50.3 µM; in assay [10], 36 µM.
On to `CC(C)(C)OC(=O)C#CC[C@H]1CCCC1/C=C/C(O)=C1/C(=O)NC(CCCNC(=O)OC(C)(C)C)C1=O` (stereo not given in full), for which the TGI in assay [2] was greater than 100 µM; in assay [3], greater than 100 µM; in [4], 84.5 µM; in [5], greater than 100 µM; in [6], greater than 100 µM; in assay [7], 34.9 µM. Further, the results for the TGI in [8], in [9] and in assay [10] were greater than 100 µM, 84.5 µM and greater than 100 µM, respectively.
As for `CCCCOc1ccc(NC(N)=Nc2ccc(Cl)cc2)cc1`, the TGI in assay [1] is 18.9 µM; in assay [2] it was 6.34 µM; in assay [3] it was 15.9 µM; in [4], 18 µM; in assay [6], 10.3 µM; in assay [7], 26 µM. The TGI was 2.1 µM in assay [8], greater than 49.5 µM in assay [9] and 15.3 µM in assay [10].
`COc1cccc(NC(=O)CC(=O)N2N=C(N(CCC#N)c3ccc(Cl)cc3)CC2c2ccccc2)c1` (stereo not given): the TGI in assay [2], in assay [3], in assay [4], in assay [5], in assay [6] and in assay [7] was greater than 100 µM throughout. Moreover, the TGI in assay [8], in assay [9] and in assay [10] was greater than 100 µM in each case.
For `COC(=O)[C@]12CC[C@@H](C)[C@H](C)[C@@H]1C1=CC[C@@H]3[C@@]4(C)C[C@@H](OC(C)=O)[C@H](O)[C@@](C)(COC(C)=O)[C@@H]4[C@H](O)C[C@@]3(C)[C@]1(C)CC2`, the GI50 is 2.44 µM in [1]; 1.82 µM in [2]; 2.68 µM in assay [4]; 2.82 µM in [5]; 2.21 µM in [6]; 1.78 µM in assay [8]. Moreover, the GI50 in [9] is 2.4 µM; in assay [10], 2.35 µM. Also, the TGI in assay [1] was 8.02 µM; in [2], 4.07 µM; in assay [4] it was 8.97 µM; in assay [5] it was 10.9 µM; in [6], 8.34 µM; in [8], 3.66 µM. The TGI in assay [9] came out at 8.06 µM; in [10] it was 11.7 µM.
In the case of `COc1ccc(C(=O)/C=C/c2ccc(/C=C/c3cc(OC)c(OC)c(OC)c3)cc2)cc1`, the GI50 in [1] was 6.19 µM; in assay [2], 9.01 µM; in assay [3] it was 9.61 µM; in [5] it was 14.6 µM; in assay [6] it was 4.67 µM; in assay [7], 7.13 µM. Further, the GI50 in assay [8] was 3.39 µM; in assay [9] it was 2.57 µM; in assay [10], 5.5 µM. Moreover, the TGI in assay [1] was greater than 100 µM; in [2], greater than 100 µM; in [3], greater than 100 µM; in assay [5] it was greater than 100 µM; in assay [6], 80.9 µM; in assay [7] it was greater than 100 µM. Moreover, the TGI in [8] was found to be 19.2 µM; in assay [9], 8.54 µM; in assay [10] it was 47.7 µM.
With `CC(=O)NNc1nc(C)c(C(=O)NNC(=O)C(=O)Nc2ccccc2C#N)s1`, the TGI in assay [2], in assay [3], in [4], in assay [5], in [6] and in assay [7] was greater than 100 µM throughout. In addition, the TGI in [8], in [9] and in [10] was greater than 100 µM throughout.

For the origin of these results see PubChem BioAssay (NCI).
